# According to PMC6314830 (Science Advances, 2019):
# Test system: mouse skin
# Assay: Topical application to uninfected mouse skin
# Format: in vivo
# Settings: repeated daily topical treatments of the skin
compound,measurement,value
CC[C@H](C)[C@H](N)C(=O)N[C@@H](CC(N)=O)C(=O)N[C@@H](CC(C)C)C(=O)N[C@@H](CCCCN)C(=O)N[C@@H](C)C(=O)N[C@@H](CC(C)C)C(=O)N[C@@H](C)C(=O)N[C@@H](C)C(=O)N[C@@H](CC(C)C)C(=O)N[C@@H](C)C(=O)N[C@@H](CCCCN)C(=O)N[C@@H](CCCCN)C(=O)N[C@H](C(=O)N[C@@H](CC(C)C)C(=O)O)[C@@H](C)CC [Mastoparan],Local or systemic adverse effects,did not observe any local or systemic adverse effects
